# Reference: patent US11110186B2, “Anionic chelate compounds” (GENERAL ELECTRIC COMPANY, priority 2017, dated 2021)
# Columns and labels:
# [1] = estimated in DMSO; arm —C(═O)—N—R2R3 of Formula I; cited from earlier work
# [2] = Measurement of r1 and r2 relaxivities (Bruker mq60 relaxometer); type: physicochemical; conditions: in water at 60 MHz and 40° C.
# Description: Manganese containing chelates were dissolved in water at concentrations ranging from […] Mn. T1 and T2 relaxation times were then measured at 60 MHz and 40° C. using a Bruker mq60 relaxometer. Linear fits (R^2>0.99 in all cases) of 1/T1 or 1/T2 as a function of Mn concentration gave r1 or r2 values respectively.
# The values in Table 1 are relaxivities in water. The r1 value represents the ability of the chelate to generate T1 (or positive) contrast in a MR scanner while the r2 value represents the ability of the chelate to generate T2 (or negative) contrast in a MR scanner.
SMILES,pKa (approx.) [1],r1 relaxivity [2] [mM⁻¹ s⁻¹]
CC(=O)NCCc1ccc(C(C#N)C#N)cc1,~4.2,
CC(=O)NC/C=C1\SC(=O)NC1=O,~6.8,
CN1CCN2Cc3cccc(n3)CN(CC1)C(CCC(=O)NCCS(=O)(=O)O)C(=O)[O][Mn][O]C(=O)C2CCC(=O)NCCS(=O)(=O)O (stereo not shown) [Mn Chelate 1],,3.4
"CN1CCN2CC(=O)[O][Mn][O]C(=O)CN(CC1)Cc1cccc(n1)C2 [Mn Platform, reference compound]",,1.7
CC(=O)NCCc1cc([N+](=O)[O-])ccc1S,~5.5,
CC(=O)NCCc1ccc(C(=O)C[N+](=O)[O-])cc1,~7.7,
CC(=O)NCCc1cc([N+](=O)[O-])cc([N+](=O)[O-])c1O,~5.1,
CC(=O)NCCS(=O)(=O)O,~1.6,
CN1CCN2Cc3cccc(n3)CN(CC1)C(CCCCNC(=O)[C@H](O)[C@@H](O)C(=O)O)C(=O)[O][Mn][O]C(=O)C2CCCCNC(=O)[C@H](O)[C@@H](O)C(=O)O (stereo partly shown) [Mn Chelate 2],,4.6
CC(=O)NCCc1ccc(S(=O)(=O)C[N+](=O)[O-])cc1,~7.1,
